Drawing on ChEMBL document CHEMBL1150524, “Two novel, potent and selective histamine H3 receptor agonists” (Bioorg Med Chem Lett, 1992), this text covers Activity and IC50 for three molecules.

SMILES strings stand for the structures. Active and inactive are the calls of the source. The rule behind the calls is not given here.

What all share (type): functional, tissue-based
Assay [1] deals with Histamine H2 receptor (Cavia porcellus) (UniProt P47747). As to the kind of experiment: Effect on histamine H2 receptor of the guinea-pig atrium, at 10e-5 M concentration; not significant. The following applies: Cardiac atrium.
Sequence of Histamine H2 receptor (Cavia porcellus) (P47747 whole entry): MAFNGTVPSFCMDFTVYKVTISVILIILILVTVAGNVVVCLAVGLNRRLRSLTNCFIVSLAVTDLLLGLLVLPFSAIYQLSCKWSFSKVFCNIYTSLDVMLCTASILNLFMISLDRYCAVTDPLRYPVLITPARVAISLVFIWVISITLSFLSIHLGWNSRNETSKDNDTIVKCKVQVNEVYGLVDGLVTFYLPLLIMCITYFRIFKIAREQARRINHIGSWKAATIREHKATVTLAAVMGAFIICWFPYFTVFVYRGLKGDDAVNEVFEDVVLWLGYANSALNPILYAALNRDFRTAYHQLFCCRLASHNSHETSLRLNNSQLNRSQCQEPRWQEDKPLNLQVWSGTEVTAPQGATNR
Assay [2] concerns the target Histamine H1 receptor (Cavia porcellus) (UniProt P31389). As to the kind of experiment: Effect on histamine H1 receptor of the guinea-pig ileum, at 10e-5 M concentration; not significant.
For the next assay, the target named is Histamine H3 receptor (Cavia porcellus, UniProt Q9JI35). As to the kind of experiment: Histamine H3 receptor agonist activity was assessed by the inhibition of the electrically evoked twitch response of the guinea-pig ileum.
Sequence of Histamine H3 receptor (Q9JI35 whole entry): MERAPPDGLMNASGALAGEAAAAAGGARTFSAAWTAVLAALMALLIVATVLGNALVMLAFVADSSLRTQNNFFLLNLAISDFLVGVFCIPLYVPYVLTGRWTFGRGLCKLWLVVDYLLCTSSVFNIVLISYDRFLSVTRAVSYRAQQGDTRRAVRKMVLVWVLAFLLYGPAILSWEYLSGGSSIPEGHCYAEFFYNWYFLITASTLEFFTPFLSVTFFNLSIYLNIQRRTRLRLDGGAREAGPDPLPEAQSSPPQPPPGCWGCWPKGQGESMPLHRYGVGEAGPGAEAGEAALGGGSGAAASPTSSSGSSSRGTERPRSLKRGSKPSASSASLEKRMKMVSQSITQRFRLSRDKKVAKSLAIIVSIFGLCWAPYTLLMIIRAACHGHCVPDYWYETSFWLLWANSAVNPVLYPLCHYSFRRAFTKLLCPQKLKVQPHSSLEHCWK

Sequence of Histamine H1 receptor (Cavia porcellus) (P31389 whole entry): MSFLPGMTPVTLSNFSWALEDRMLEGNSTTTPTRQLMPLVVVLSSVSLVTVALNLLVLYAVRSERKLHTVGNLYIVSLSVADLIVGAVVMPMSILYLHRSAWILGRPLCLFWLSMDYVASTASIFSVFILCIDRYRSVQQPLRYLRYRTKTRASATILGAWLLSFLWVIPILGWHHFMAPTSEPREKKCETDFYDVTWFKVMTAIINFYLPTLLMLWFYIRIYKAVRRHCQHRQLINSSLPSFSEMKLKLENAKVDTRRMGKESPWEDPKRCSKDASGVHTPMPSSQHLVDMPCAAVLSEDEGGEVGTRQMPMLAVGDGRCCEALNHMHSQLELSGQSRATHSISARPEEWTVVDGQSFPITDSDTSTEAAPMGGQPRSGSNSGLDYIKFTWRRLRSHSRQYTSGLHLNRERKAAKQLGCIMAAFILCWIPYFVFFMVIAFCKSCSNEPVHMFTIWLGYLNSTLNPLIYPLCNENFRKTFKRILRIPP

Consider `N=C(N)CCCc1c[nH]cn1`, for which the outcome in assay [1] and in assay [2] was inactive. The IC50 on Histamine H3 receptor worked out at 1.1 nM.

In turn, `N=C(N)SCCc1cnc[nH]1` [IMETIT] showed a concentration for half-maximal inhibition (IC50) on Histamine H3 receptor of 4.6 nM. That is a single-digit nanomolar value.

Turning to `N=C(N)SCCc1c[nH]cn1`, the outcome in assay [1] and in assay [2] was inactive.

What is called IC50 is the concentration that gives 50% inhibition. A lower IC50 goes with greater potency.
